Measurements: publication PMC9194936, “Preclinical Activity and Pharmacokinetic/Pharmacodynamic Relationship for a Series of Novel Benzenesulfonamide Perforin Inhibitors” (ACS Pharmacology & Translational Science, 2022)

Legend:
[1] = test system: perforin-dependent cytotoxicity of KHYG-1 NK cells on K562 target cells; assay: KHYG-1 cytotoxicity assay (51Cr-labeled K562 target cells); assay type: cell-based; conditions: Homo sapiens; concentration inhibiting 90% of perforin-dependent cytotoxicity; K562 targets, effector/target 2:1, 4 h, RPMI 0.1% BSA; read-out: KHYG-1 IC90
Procedure: (Table 1). […] An IC90 was used rather than an IC50 as we anticipated that elevated suppression of perforin activity is likely required to preserve the transplanted bone marrow stem cells in vivo.
The inhibition of the cytotoxic activity of KHYG-1 NK cells on K562 target cells was determined as described previously.[14] Briefly, compounds were added to KHYG-1 cells at 6–7 concentrations ranging from 20 μM to 312.5 nM in 2-fold dilutions in RPMI medium (Thermo Fisher Scientific, Waltham, MA) supplemented with 0.1% bovine serum albumin (BSA; Sigma-Aldrich, St. Louis, MO) for 20 min. ^51Cr-labeled K562 leukemia target cells were added to KHYG-1 cells at an effector/target ratio of 2:1 and incubated at 37 °C for 4 h. ^51Cr release was assayed using a Harvesting Press (Skatron Instruments, Lier, Norway), and radioactivity was estimated on a Wallac Wizard 1470 Automatic γ counter (Turku, Finland). The IC90 values were calculated by fitting a four-parameter logistic sigmoidal dose–response curve to the data using Prism version 8 (GraphPad, San Diego, CA). Each IC90 value represents the mean of at least three independent experiments, where six to seven concentrations were tested in triplicate for each compound.

perforin = molecular target: T1, perforin (Mus musculus, UniProt P10820); assay: In vivo perforin inhibition (allogeneic bone marrow transfer assay); conditions: for % perforin inhibition, spleen: 24 h after transplant
T1 construct: endogenous in cells; host or cells: recipient cytotoxic lymphocytes (NK/CTL) of wild-type C57BL/6 mice, in vivo
T1 sequence (P10820 21-554): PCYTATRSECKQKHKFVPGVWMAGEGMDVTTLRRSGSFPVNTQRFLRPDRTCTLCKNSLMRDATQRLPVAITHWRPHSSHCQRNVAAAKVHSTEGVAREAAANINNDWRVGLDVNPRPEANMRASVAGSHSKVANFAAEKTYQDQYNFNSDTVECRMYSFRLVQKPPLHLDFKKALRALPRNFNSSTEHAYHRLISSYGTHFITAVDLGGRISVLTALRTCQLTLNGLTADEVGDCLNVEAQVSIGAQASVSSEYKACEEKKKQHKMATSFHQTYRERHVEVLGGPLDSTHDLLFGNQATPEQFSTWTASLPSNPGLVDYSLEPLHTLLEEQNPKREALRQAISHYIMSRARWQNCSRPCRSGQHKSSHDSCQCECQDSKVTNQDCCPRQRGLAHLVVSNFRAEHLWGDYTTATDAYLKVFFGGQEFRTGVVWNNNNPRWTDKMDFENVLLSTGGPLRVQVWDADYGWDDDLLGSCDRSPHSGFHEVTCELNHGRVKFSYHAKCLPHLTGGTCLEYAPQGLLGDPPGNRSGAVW
Procedure: This model was selected as a surrogate assay for graft rejection during allogeneic bone marrow/stem cell transplantation to enable rapid testing of perforin inhibition in vivo. Mice were transplanted with a mixture of equal numbers of allogeneic immunologically mismatched and syngeneic immunologically matched bone marrow. […] Allogeneic cell survival in spleen and peripheral blood was determined 24 h after transplant, using C57BL/6 perforin-deficient mice (100% perforin inhibition) and untreated C57BL/6 mice (0% perforin inhibition) as controls.
Compounds were tested for in vivo efficacy as described previously.[14] Age- (8–12 weeks) and sex-matched wild-type (H-2D^b, CD45.2^+) or perforin-deficient C57BL/6 mice (C57BL/6-Prf1^tm1Sdz/J; H-2D^b, CD45.2^+) received 12 ×10^6 bone marrow cells from both allogeneic BALB/c (H-2D^d) MHC-mismatched and syngeneic C57BL/6 (H-2D^b) MHC-matched mice (24 × 10^6 cells total). The wild-type recipient mice were treated with perforin inhibitor compounds by intraperitoneal injection in 20% hydroxypropyl-β-cyclodextrin vehicle (10 mL/kg), or with vehicle alone; perforin-deficient mice remained untreated. The mice were euthanized 24 h after bone marrow transfer for peripheral blood mononuclear cell (PBMC) and spleen collection.
Throughout the study, we utilized two strategies to distinguish between recipient, donor allogeneic, and donor syngeneic cells based on either fluorescent labeling prior to transplant or congenic marker expression (CD45.1/CD45.2). In the fluorescent dye approach, allogeneic wild-type BALB/c (H-2D^d, CD45.2^+) bone marrow was labeled with 1 μM carboxyfluorescein succinimidyl ester (CFSE) prior to mixing with syngeneic bone marrow from C57BL/6 congenic mice (CD45.1^+). Twenty-four hours after cell transfer, the harvested cells were stained with anti-CD45.1-phycoerythrin and anti-TER119-allophycocyanin monoclonal antibodies (BioLegend, San Diego, CA). TER119 was used for erythroid exclusion prior to the identification of allogeneic (CFSE^+) and syngeneic (CD45.1^+) donor cells. Using a second purely congenic marker approach, allogeneic BALB/c congenic (H-2D^d, CD45.1^+) bone marrow was mixed with syngeneic C57BL/6 double congenic (H-2D^b, CD45.1^+CD45.2^+) bone marrow prior to transfer. The harvested cells were stained with anti-CD45.1-phycoerythrin, anti-CD45.2-phycoerythrin-cyanine-7, and anti-TER119-allophycocyanin monoclonal antibodies (BioLegend, San Diego, CA). TER119 was used for erythroid exclusion, prior to identification of allogeneic donor (CD45.1^+), syngeneic donor (CD45.1^+ CD45.2^+), and recipient (CD45.2^+) cells. Dead cells were excluded using 7-aminoactinomycin D. Samples were acquired with an LSR Fortessa (BD Biosciences) and analyzed using FlowJo version 9 software (BD Biosciences). Prism version 9 (GraphPad) was used to calculate CTL indices as the percentage survival of syngeneic donor cells divided by the percentage survival of allogeneic donor cells. […] In vivo perforin inhibition animal experiments were approved by the Animal Ethics Committee of the QIMR Berghofer Medical Research Institute.

[2] = Splenocyte cellularity and tolerability in the bone marrow transfer assay; assay type: in vivo
Procedure: For the determination of splenic cell counts, mouse spleens were harvested and the cells dispersed in media by gentle teasing and then centrifuged at 500g. Cell pellets were resuspended in media and total spleen cell counts were performed manually using a standard hemocytometer and light microscopy. […] Peripheral blood cell counts and spleen white blood cell counts were determined on a Beckman Coulter Ac.T diff hematology analyzer.

[3] = set-up: method as in PMID 28582670; AUC: concentration or dose not given beside the values; conditions: mouse plasma; cited from earlier work
[4] = Plasma protein binding by equilibrium dialysis; assay type: in vitro ADME, mouse; conditions: CD1, pH 7.4; mouse plasma, 10 μM, equilibrium dialysis
Procedure: The plasma protein binding of the compounds was determined by equilibrium dialysis (12–14 kDa cutoff membrane). […] The dialysis unit was covered with an adhesive sealing film to prevent evaporation of the contents and placed in an incubator (Innova-42, New Brunswick Scientific) maintained at 37 °C with gentle mixing (80 rpm) for 6 h. Next, a 10 μL sample was aspirated from the plasma side and mixed with 90 μL of fresh PBS, whereas a 90 μL sample from the buffer side was removed and combined with 10 μL of drug-free plasma to ensure uniform matrix composition. Ice-cold acetonitrile (300 μL; Merck Millipore, Burlington, MA) containing internal standard (a BZS analogue of similar chemical structure) was added to each sample to precipitate protein and was vortexed for 2 min and centrifuged for 5 min at 13 000 rpm. The supernatant was diluted with 0.01% formic acid in ultrapure water (Milli-Q) (1:1) and quantitated by liquid chromatography–tandem mass spectrometry (LC-MS/MS). Each compound was tested in triplicate alongside control compounds known to have low (e.g., lidocaine) and high (e.g., amitriptyline) plasma protein binding. For media binding studies, the same assay was used, but RPMI with 0.1% BSA was used in place of CD1 mouse plasma.

recombinant perforin = test system: recombinant perforin; set-up: method as in PMID 28582670, PMID 28110869; conditions: lytic activity of recombinant perforin against Jurkat T leukemia cells; cited from earlier work
[5] = all dose levels (100, 75 and 50% of MTD), qd x 4
[6] = 100 mg/kg qd x 4 (0, 24, 48 h prior to and 18 h after transfer)

| SMILES | IC90 [1] | % perforin inhibition, spleen (perforin; 60 mg/kg qd x 4 (0, 24, 48 h prior to and 18 h after transfer)) | % perforin inhibition, spleen (perforin; 90 mg/kg qd x 4 (0, 24, 48 h prior to and 18 h after transfer)) | reductions in splenocyte number [2, 5] | tolerability [2, 5] | AUC [3] | Cmax [3] | fraction unbound at 6 h, 10 μM [4] | % perforin inhibition, spleen (perforin; [6]) | IC50 (recombinant perforin) | % perforin inhibition, spleen (perforin; 160 mg/kg qd x 4 (0, 24, 48 h prior to and 18 h after transfer)) | % perforin inhibition, spleen (perforin; 120 mg/kg qd x 4 (0, 24, 48 h prior to and 18 h after transfer)) | increase in allogeneic bone marrow survival in the spleen, % of that seen in perforin-deficient mice (perforin; dose at or near the MTD, 0, 24, 48 h prior to and 18 h after cell transfer) | reduction in splenocyte cellularity ([2]; dose at or near MTD, qd x 4, after allogeneic bone marrow transplantation) |
| --- | --- | --- | --- | --- | --- | --- | --- | --- | --- | --- | --- | --- | --- | --- |
| CN1Cc2cc(-c3ccc(-c4cncc(NS(=O)(=O)c5ccc(F)cc5F)c4)s3)ccc2C1=O [Compound 3, 2,4-difluoro-N-{5-[5-(2-methyl-1-oxo-2,3-dihydro-1H-isoindol-5-yl)-2-thienyl]-3-pyridinyl}benzenesulfonamide] | 16 ± 3.6 µM | 7% | 10% | only minor reductions | well tolerated | 220 µM·h | 9.8 µM |  |  |  |  |  |  |  |
| CN1Cc2cc(-c3ccc(-c4cncc(NS(=O)(=O)c5ccc([N+](=O)[O-])cc5)c4)s3)ccc2C1=O [Compound 4, N-{5-[5-(2-methyl-1-oxo-2,3-dihydro-1H-isoindol-5-yl)-2-thienyl]-3-pyridinyl}-4-nitrobenzenesulfonamide] | 19.9 ± 3.7 µM |  |  |  |  | 383 µM·h | 64.4 µM | 0.0031 | 80.53% | 3130 nM |  |  |  |  |
| CN1Cc2cc(-c3ccc(-c4cncc(NS(=O)(=O)c5c(F)cc(F)cc5F)c4)s3)ccc2C1=O [Compound 5, 2,4,6-trifluoro-N-{5-[5-(2-methyl-1-oxo-2,3-dihydro-1H-isoindol-5-yl)-2-thienyl]-3-pyridinyl}benzenesulfonamide] | 10.1 ± 1.8 µM |  |  |  |  | 1019 µM·h | 124 µM | 0.0048 | 14.88% | 1760 nM |  |  |  |  |
| CN1Cc2cc(-c3ccc(-c4cncc(NS(=O)(=O)c5ccc(C#N)cc5)c4)s3)ccc2C1=O [Compound 6, 4-cyano-N-{5-[5-(2-methyl-1-oxo-2,3-dihydro-1H-isoindol-5-yl)-2-thienyl]-3-pyridinyl}benzenesulfonamide] | 30.9 ± 10.5 µM |  |  |  |  | 642 µM·h | 87.3 µM | 0.0023 | 22.70% | 5170 nM |  |  |  |  |
| CN1Cc2cc(-c3ccc(-c4cnc(F)c(NS(=O)(=O)c5ccc(F)cc5F)c4)s3)ccc2C1=O [Compound 8, 2,4-difluoro-N-{2-fluoro-5-[5-(2-methyl-1-oxo-2,3-dihydro-1H-isoindol-5-yl)-2-thienyl]-3-pyridinyl}benzenesulfonamide] | 3.54 ± 0.65 µM |  |  |  |  | 2885 µM·h | 236 µM | 0.0003 |  | 1990 nM | 39.14% |  |  |  |
| CN1Cc2cc(-c3ccc(-c4cnc(Cl)c(NS(=O)(=O)c5ccc(F)cc5F)c4)s3)ccc2C1=O [Compound 9, N-{2-chloro-5-[5-(2-methyl-1-oxo-2,3-dihydro-1H-isoindol-5-yl)-2-thienyl]-3-pyridinyl}-2,4-difluorobenzenesulfonamide] | 1.86 ± 0.44 µM |  |  |  |  | 2364 µM·h | 149 µM | 0.0002 |  | 1030 nM |  | 61.28% | 61% | much higher |
